Earlier results in US12318376B2, “Compositions of a polyorthoester and an aprotic solvent” (Heron Therapeutics, Inc., priority 2013, dated 2025).

Conditions: printed in brackets under the miscibility class

Compound	Water Miscibility (amount in brackets)
CCOC(C)=O [ethyl acetate]	(8.3 g/100 ml)

Same assay, conditions: solvent in water, room temperature (20-25° C.)

Compound	Water Miscibility
CC1COC(=O)O1 (stereo not drawn) [4-methyl-1,3-diololan-2-one]	water miscible
O=C1CCCN1C1CCCCC1 [N-cyclohexyl-2-pyrrolidone]	poorly miscible
CN1CCCC1=O [N-methyl-2-pyrrolidone (NMP), N-methyl-2-pyrrolidone]	water miscible
O=C(OCc1ccccc1)c1ccccc1 [benzyl benzoate]	poorly miscible
C[S+](C)[O-] [dimethyl sulfoxide]	water miscible
O=C1CCCCCO1 [ester-caprolactone]	water miscible
CCOC(C)=O [ethyl acetate]	partially miscible
CCOC(=O)C(C)O (stereo not drawn) [ethyl lactate]	water miscible
CCCCCCCC/C=C\CCCCCCCC(=O)OCC [ethyl oleate]	poorly miscible
CCCCCCCCCCCCCC(=O)OC(C)C [isopropyl myristate]	poorly miscible
COC(C)=O [methyl acetate]	water miscible
COC(=O)C(C)O (stereo not drawn) [methyl lactate]	water miscible
CCN1CCCC1=O [n-ethyl-2-pyrrolidone]	water miscible
C1CCOC1 [tetrahydrofuran]	water miscible
